Laboratory results taken from US12077503B2, “Substituted cyclic amides and their use as herbicides” (FMC CORPORATION, priority 2015, dated 2024).

Columns and labels:
Format in all cases: in vivo
[1] = system: barnyardgrass (Echinochloa crus-galli); assay: Test A preemergence
Procedure, shortened: (§1)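 Visual injury scores from 0, no effect, to 100, complete control, were assigned versus untreated controls roughly 10 d after treatment in the greenhouse. Test chemicals, formulated with surfactant in a non-phytotoxic solvent, were applied to planted seeds as a preemergence soil spray or postemergence to one- to two-leaf plants 2 to 10 cm tall, in loam–sand soil.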

[2] = system: giant foxtail (Setaria faberii); assay: Test A preemergence
Procedure, shortened: as §1

[3] = system: pigweed (Amaranthus retroflexus); assay: Test A preemergence
Kochia (Kochia scoparia) [4] = assay: Test A preemergence
Procedure, shortened: as §1

[5] = system: ryegrass, Italian (Italian ryegrass, Lolium multiflorum); assay: Test A preemergence
Procedure, shortened: as §1

[6] = system: ragweed (common ragweed, Ambrosia elatior); assay: Test A preemergence
Procedure, shortened: as §1

[7] = system: barnyardgrass (Echinochloa crus-galli); assay: Test B flooded paddy test; conditions: Flood, 0 to 100 scale where 0 is no effect and 100 is complete control, 13 to 15 d
Procedure, shortened: (§2)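 Rating scale 0–100 (visual, vs untreated controls) after a 13–15 d greenhouse period; application to the flood layer, 3 cm above soil and maintained; plants at 2-leaf stage when treated.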

rice (Oryra sativa) = assay: Test B flooded paddy test; conditions: Flood, 0 to 100 scale where 0 is no effect and 100 is complete control, 13 to 15 d
Procedure, shortened: as §2

[8] = system: ducksalad (Heteranthera limosa); assay: Test B flooded paddy test; conditions: Flood, 0 to 100 scale where 0 is no effect and 100 is complete control, 13 to 15 d
Procedure, shortened: as §2

[9] = system: sedge, umbrella (small-flower umbrella sedge, Cyperus difformis); assay: Test B flooded paddy test; conditions: Flood, 0 to 100 scale where 0 is no effect and 100 is complete control, 13 to 15 d
Procedure, shortened: as §2

[10] = system: barnyardgrass (Echinochloa crus-galli); assay: Test A postemergence
Procedure, shortened: as §1

[11] = system: blackgrass (Alopecurus myosuroides); assay: Test A postemergence
Procedure, shortened: as §1

[12] = system: giant foxtail (Setaria faberii); assay: Test A postemergence
Procedure, shortened: as §1

[13] = system: pigweed (Amaranthus retroflexus); assay: Test A postemergence
Procedure, shortened: as §1

corn (Zea mays) = assay: Test A postemergence
Procedure, shortened: as §1

Kochia (Kochia scoparia) [14] = assay: Test A postemergence
Procedure, shortened: as §1

[15] = system: wheat (Triticum aestivum); assay: Test A postemergence
Procedure, shortened: as §1

[16] = system: ryegrass, Italian (Italian ryegrass, Lolium multiflorum); assay: Test A postemergence
Procedure, shortened: as §1

[17] = system: Galium (catchweed bedstraw, Galium aparine); assay: Test A postemergence
Procedure, shortened: as §1

[18] = system: ragweed (common ragweed, Ambrosia elatior); assay: Test A postemergence
Procedure, shortened: as §1

[19] = 125 g ai/ha, Preemergence, visual injury after approximately 10 d, 0 to 100 scale where 0 is no effect and 100 is complete control
[20] = Preemergence, 500 g ai/ha, visual injury approx. 10 d
[21] = 125 g ai/ha, postemergence, visual rating after approx. 10 d, 0 to 100 scale (0 no effect, 100 complete control)
[22] = Postemergence, 500 g ai/ha, 0 to 100 scale where 0 is no effect and 100 is complete control
[23] = 500 g ai/ha, preemergence, 0 to 100 scale, 0 = no effect, 100 = complete control
[24] = 500 g ai/ha, postemergence, visual injury, 0 to 100 scale (0 no effect, 100 complete control), approx. 10 d

Compound	Plant response rating, Barnyardgrass [1, 19]	Plant response rating, Foxtail, Giant [2, 19]	Plant response rating, Pigweed [3, 19]	Plant response rating, Kochia (Kochia (Kochia scoparia) [4]; [19])	Plant response rating, Ryegrass, Italian [5, 19]	Plant response rating, Ragweed [6, 19]	Plant response rating, Barnyardgrass ([7]; 250 g ai/ha)	Plant response rating, Rice (rice (Oryra sativa); 250 g ai/ha)	Plant response rating, Ducksalad ([8]; 250 g ai/ha)	Plant response rating, Sedge, Umbrella ([9]; 250 g ai/ha)	Plant response rating, Barnyardgrass [10, 21]	Plant response rating, Blackgrass [11, 21]	Plant response rating, Foxtail, Giant [12, 21]	Plant response rating, Pigweed [13, 21]	Plant response rating, Corn (corn (Zea mays); [21])	Plant response rating, Kochia (Kochia (Kochia scoparia) [14]; [21])	Plant response rating, Wheat [15, 21]	Plant response rating, Ryegrass, Italian [16, 21]	Plant response rating, Galium [17, 21]	Plant response rating, Ragweed [18, 21]	further results
O=C1NCC(c2cc(F)c(F)cc2F)C1C(=O)Nc1ccc(F)cc1F (racemic) [Compound 551]	30	80	0	0	0	0	20	15	85	0	10	0	50	0	0	0	0	0	0	0	Barnyardgrass plant response rating (0 to 100 scale, 0 is no effect, 100 is complete control) [1, 20]: 90; Foxtail, Giant plant response rating (0 to 100 scale, 0 is no effect, 100 is complete control) [2, 20]: 90; Pigweed plant response rating (0 to 100 scale, 0 is no effect, 100 is complete control) [3, 20]: 0; Kochia plant response rating (0 to 100 scale, 0 is no effect, 100 is complete control) (Kochia (Kochia scoparia) [4]; [20]): 0; Ryegrass, Italian plant response rating (0 to 100 scale, 0 is no effect, 100 is complete control) [5, 20]: 0; Ragweed plant response rating (0 to 100 scale, 0 is no effect, 100 is complete control) [6, 20]: 0; Plant response rating, Barnyardgrass [10, 22]: 80; Plant response rating, Blackgrass [11, 22]: 0; Plant response rating, Foxtail, Giant [12, 22]: 80; Plant response rating, Pigweed [13, 22]: 0; Plant response rating, Corn (corn (Zea mays); [22]): 0; Plant response rating, Kochia (Kochia (Kochia scoparia) [14]; [22]): 0; Plant response rating, Wheat [15, 22]: 0; Plant response rating, Ryegrass, Italian [16, 22]: 0; Plant response rating, Galium [17, 22]: 0; Plant response rating, Ragweed [18, 22]: 0
COc1cccc(NC(=O)C2C(=O)NCC2c2cccc(C(F)(F)F)c2)c1F (racemic) [Compound 674]	60	70	0	0	0	0					30	0	30	0	0	0	0	0	0	0	Plant response rating, Barnyardgrass [1, 23]: 80; Plant response rating, Foxtail, Giant [2, 23]: 90; Plant response rating, Pigweed [3, 23]: 0; Plant response rating, Kochia (Kochia (Kochia scoparia) [4]; [23]): 30; Plant response rating, Ryegrass, Italian [5, 23]: 0; Plant response rating, Ragweed [6, 23]: 0; Plant response rating, Barnyardgrass ([7]; 500 g ai/ha): 60; Plant response rating, Rice (rice (Oryra sativa); 500 g ai/ha): 20; Plant response rating, Ducksalad ([8]; 500 g ai/ha): 65; Plant response rating, Sedge, Umbrella ([9]; 500 g ai/ha): 0; Plant response rating, Barnyardgrass [10, 24]: 70; Plant response rating, Blackgrass [11, 24]: 0; Plant response rating, Foxtail, Giant [12, 24]: 80; Plant response rating, Pigweed [13, 24]: 0; Plant response rating, Corn (corn (Zea mays); [24]): 0; Plant response rating, Kochia (Kochia (Kochia scoparia) [14]; [24]): 0; Plant response rating, Wheat [15, 24]: 0; Plant response rating, Ryegrass, Italian [16, 24]: 0; Plant response rating, Galium [17, 24]: 0; Plant response rating, Ragweed [18, 24]: 0
Cc1ccc(C2CNC(=O)C2C(=O)Nc2ccccc2F)cc1C(F)(F)F (racemic) [Compound 678]	90	80	0	0	0	0	40	10	75	0	70	30	20	0	10	0	0	0	0	0	Plant response rating, Barnyardgrass [1, 23]: 90; Plant response rating, Foxtail, Giant [2, 23]: 90; Plant response rating, Pigweed [3, 23]: 0; Plant response rating, Kochia (Kochia (Kochia scoparia) [4]; [23]): 30; Plant response rating, Ryegrass, Italian [5, 23]: 20; Plant response rating, Ragweed [6, 23]: 0; Plant response rating, Barnyardgrass [10, 24]: 80; Plant response rating, Blackgrass [11, 24]: 60; Plant response rating, Foxtail, Giant [12, 24]: 60; Plant response rating, Pigweed [13, 24]: 0; Plant response rating, Corn (corn (Zea mays); [24]): 30; Plant response rating, Kochia (Kochia (Kochia scoparia) [14]; [24]): 0; Plant response rating, Wheat [15, 24]: 20; Plant response rating, Ryegrass, Italian [16, 24]: 20; Plant response rating, Galium [17, 24]: 30; Plant response rating, Ragweed [18, 24]: 0
